According to US20230095428A1, “[6R]-MTHF IN 5-FU BASED CHEMOTHERAPY OF BRAF- OR KRAS-MUTATED COLORECTAL CANCER” (Isofol Medical AB, priority 2021, published 2023):

Experiments:
[1] = in vitro; cited from earlier work
[2] = cited from earlier work; for pharmacokinetic comparison of leucovorin and levoleucovorin: in vivo
[3] = tested on: solid colorectal cancer tumors (mCRC, incl. BRAF- or KRAS-mutated); assay: Clinical study ISO-CC-005 (Phase I/IIa), safety extension cohorts and follow-up study: tumour response by CT, ORR per RECIST 1.1; assay type: in vivo, human; settings: 19 patients harbouring either mutated KRAS or BRAF; 16 weeks and beyond; 120 mg/m2 arfolitixorin
Source text: As used herein, the term ORR shall refer to the Objective Response Rate, i.e. the proportion of patients with a reduction in tumor burden of a predefined amount. […] (Note: the appearance of one or more new lesions is also considered progression). […] As used herein, the term best ORR shall refer to the best overall response rate as per RECIST guideline version 1.1 for the treatment period, where applicable. Arfolitixorin has been in development for a number of years and has been studied in several clinical studies. […] 2019. The completion of the study was announced in January 2020. In total, 105 patients were included in the study. Applicant completed the dose definition part of ISO-CC-005 in March 2018, which evaluated the safety and efficacy of arfolitixorin in patients with mCRC. Shortly after, applicant started two additional treatment groups in 2018 to generate more safety and efficacy data, i.e. the safety extension Cohort #18 (Treatment Arm #4) and Cohort #19 (Treatment Arm #6). The aim was to evaluate as many patients as possible from the additional treatment groups after a treatment period of 16 weeks+. On 30 Sep. […] The goal with the Dose-finding Part of the Main Study was to establish the Arfolitixorin dose level assessed as having the most favourable profile, i.e. the selected phase 2 dose (SP2D). […] Response was measured in short- and long-term assessments. […]

Nc1nc(=O)c2c([nH]1)NC[C@H](CNc1ccc(C(=O)N[C@@H](CCC(=O)O)C(=O)O)cc1)N2C=O [1-LV]
conversion to the biologically available methyl-tetrahydrofolate form [1]: rapidly converted
pharmacokinetic comparison of leucovorin and levoleucovorin [2]: pharmacokinetically identical

Nc1nc2c(c(=O)[nH]1)N(C=O)C(CNc1ccc(C(=O)N[C@@H](CCC(=O)O)C(=O)O)cc1)CN2 (some centres unmarked) [Leucovorin, 5-formyl tetrahydrofolic acid]
pharmacokinetic comparison of leucovorin and levoleucovorin [2]: pharmacokinetically identical

Nc1nc2c(c(=O)[nH]1)N1CN(c3ccc(C(=O)N[C@@H](CCC(=O)O)C(=O)O)cc3)C[C@H]1CN2 [[6R]-5,10-MTHF, [6R]-5,10-methylenetetrahydrofolate]
best ORR [3]: > 50%

Nc1nc2c(c(=O)[nH]1)N(C=O)[C@H](CNc1ccc(C(=O)N[C@@H](CCC(=O)O)C(=O)O)cc1)CN2 [d-LV]
excretion ([2]; kidneys): slowly excreted by the kidneys
